In US20070066636A1, “POLYMORPHS OF TARTRATE SALT OF 2-[2-(3-(R)-AMINO-PIPERIDIN-1-YL)-5-FLUORO-6-OXO-6H-PYRIMIDIN-1-YLMETHYL]-BENZONITRILE AND METHODS OF USE THEREFOR” (priority 2005, published 2007):
Structures can show the parent of a compound that is named as a salt.

Tests used:
Type in all cases: physicochemical
[1] = Solubility estimates in different solvents; details: thermodynamic from solid, ambient temperature, visual estimate
Protocol: A weighed sample (typically about 20 mg) of Compound I form A was treated with aliquots of the test solvent at ambient temperature. The aliquot volumes were typically 250 μL. Periodically, the mixture was sonicated between additions to facilitate dissolution. Complete dissolution of the test material was determined by visual inspection. Solubilities were estimated from these experiments based on the total solvent used to provide complete dissolution. […] If dissolution occurred after the last aliquot was added then solubility is expressed as “greater than or equal to” (≧). The solubility values for Compound I (Table 4) have been rounded to the nearest whole number. The true equilibrium solubilities for the compound may be different than the values provided here because of the use of solvent aliquots that were too large or due to a slow rate of dissolution.

[2] = Moisture sorption/desorption analysis; details: for Weight Change: 25 C, Tables 2A, 2B (relative to weight at start of the event)
Protocol: Moisture sorption/desorption data were collected on a VTI SGA-100 Vapor Sorption Analyzer. Sorption and desorption data were collected over a range of 5% to 95% relative humidity (RH) at 10% RH intervals under a nitrogen purge. Sodium chloride (NaCl) and polyvinylpyrrolidone (PVP) were used as the calibration standards. Equilibrium criteria used for analysis were less than 0.0100% weight change in 5 minutes, with a maximum equilibration time of 180 minutes if the weight criterion was not met. The plotted data that contain the percent weight change values at various RH intervals are relative to the initial weight of the sample. The plotted data have not been corrected for the initial moisture content. However, the weight gain data provided in the tables for the various relative humidity ranges are calculated using the sample weight at the beginning of the particular RH event as the initial weight. In particular, the equilibration event wt. % change from initial wt. to 5% RH was calculated as [(wt at 5% RH−initial wt.)/initial wt.]*100; and the sorption event wt. % change from 5% RH to 95% RH was calculated as [(wt. at 95% RH−wt at 5% RH)/wt at 5% RH]*100; and the desorption event wt. % change from 95% RH to 5% RH was calculated as [(wt. at 5% RH−wt at 95% RH)/wt at 95% RH]*100. This type of analysis permits direct comparison of the experimental weight changes to the theoretical values predicted for the inter-conversion of anhydrates to hydrated forms.

[3] = Relative humidity (RH) stress of solids, XRPD; details: for XRPD Pattern after RH stress: ambient, 21 d
Protocol: Relative Humidity (RH) Stress: Open vials containing solid samples were placed inside chambers containing saturated salt solutions along with a small amount of the undissolved salt. The chambers were sealed and allowed to stand at ambient temperature for several weeks. Samples were analyzed by X-ray powder diffraction (XRPD) immediately after removing the sample from the RH chamber. The RH values for these salt solutions were obtained from an ASTM standard. See a) “Preparation and Use of Relative Humidity Chambers” SSCI Method MTD 032.01 Mar. 3, 2003; and b) “Standard Practice for Maintaining Constant Relative Humidity by Means of Aqueous Solutions” ASTM Standard E 104-02 (2002).

[4] = Slurry interconversion studies in methanol; details: room temperature
Protocol: Slurry Experiments: Enough Compound I was added to a given solvent so that undissolved solids were present. The mixture was then agitated in a sealed vial at ambient temperature using either an orbital shaker or a rotating wheel. After several days the solids were isolated by vacuum filtration and allowed to dry at ambient temperature in the fume hood with the cap for the sample vial loosened.
In order to determine the relative stability of the polymorphs Compound I form A was slurried in separate experiments with roughly equal amounts of forms B, C and E in methanol at room temperature. After 12 days the solids were isolated and form A was recovered as the exclusive solid phase (Table 6). In addition to these experiments, slurries of forms B, C and D in the absence of other solid phases provided form A when slurried for 5 days in methanol at room temperature. […] It should be noted that the hydration states of these solid phases may be different for the different forms, which precludes an analysis of the true thermodynamic stability ordering through slurry experiments.

[5] = Thermal analysis (TGA/DSC), thermal stability
Protocol: Thermogravimetric analyses (TGA) were carried out on a TA Instruments 2950 thermogravimetric analyzer. The calibration standards were nickel and Alumel™. Samples were placed in an aluminum sample pan, inserted into the TG furnace, and accurately weighed. The samples were heated in a stream of nitrogen at a rate of 10° C./min. The temperature of the furnace was equilibrated at 25° C. prior to the analysis of the samples. The percent mass loss values provided in the tables are rounded to the nearest 0.1%.
Differential scanning calorimetry (DSC) analyses were carried out on a TA Instruments differential scanning calorimeter 2920. Accurately weighed samples were placed in either crimped pans, crimped pans with manual pinhole or uncrimped pans to allow for pressure release. Each sample was heated under nitrogen at a rate of 10° C./min to 350° C. Indium metal was used as the calibration standard. Temperatures are reported at the transition maxima and reported to one decimal place, and the integrated events are expressed in J/g and rounded to the nearest whole number.

N#Cc1ccccc1Cn1c(N2CCC[C@@H](N)C2)ncc(F)c1=O [Form A, tartrate salt of 2-[2-(3-(R)-amino-piperidin-1-yl)-5-fluoro-6-oxo-6H-pyrimidin-1-ylmethyl]-benzonitrile]
solubility ([1]; organic solvent or mixture, 1,4-dioxane): < 3000 µg/mL
solubility ([1]; organic solvent or mixture, acetone): < 4000 µg/mL
solubility ([1]; organic solvent or mixture, acetonitrile): < 3000 µg/mL
solubility ([1]; organic solvent or mixture, chloroform): < 4000 µg/mL
solubility ([1]; organic solvent or mixture, dichloromethane): < 3000 µg/mL
solubility ([1]; organic solvent or mixture, diisopropyl ether): < 3000 µg/mL
solubility ([1]; organic solvent or mixture, dimethylformamide): ≥ 81000 µg/mL
solubility ([1]; organic solvent or mixture, ethanol): < 3000 µg/mL
solubility ([1]; organic solvent or mixture, ethyl acetate): < 3000 µg/mL
solubility ([1]; organic solvent or mixture, hexafluoroisopropanol): ≥ 80000 µg/mL
solubility ([1]; organic solvent or mixture, hexanes): < 3000 µg/mL
solubility ([1]; organic solvent or mixture, isopropanol): < 3000 µg/mL
solubility ([1]; organic solvent or mixture, isopropyl acetate): < 3000 µg/mL
solubility ([1]; organic solvent or mixture, methanol): ≥ 16000 µg/mL
solubility ([1]; organic solvent or mixture, methyl ethyl ketone): < 3000 µg/mL
solubility ([1]; organic solvent or mixture, nitromethane): < 3000 µg/mL
solubility ([1]; organic solvent or mixture, tetrahydrofuran): < 3000 µg/mL
solubility ([1]; organic solvent or mixture, toluene): < 3000 µg/mL
solubility ([1]; organic solvent or mixture, trifluoroethanol): ≥ 81000 µg/mL
solubility ([1]; water): ≥ 41000 µg/mL
hydrate type from moisture sorption/desorption analysis [2]: variable hydrate
solid form of post moisture sorption/desorption sample by XRPD ([2]; after 5%-95%-5% RH cycle): form A
molecules of water present for every molecule of compound ([2]; at 95% RH, calculated from desorption weight change and molecular weight): approximately 1
Weight Change ([2]; desorption, 95% RH to about 5% RH): −3.77%
Weight Change ([2]; equilibration, initial weight to about 5% RH): −1.44%
initial weight loss from ambient conditions to 5% RH ([2]; moisture sorption/desorption): approximately 1.4%
weight gain between 5% and 95% RH ([2]; moisture sorption/desorption): about 4.00%
Weight Change ([2]; sorption, 5% RH to about 95% RH): 4.00%
XRPD Pattern after RH stress ([3]; 58% RH stress): Form A
XRPD Pattern after RH stress ([3]; 75% RH stress): Form A
XRPD Pattern after RH stress ([3]; 84% RH stress): Form A
phase change upon RH stress ([3]; various RH conditions, room temperature, several weeks): none of these samples had undergone a phase change
relative stability of polymorphs [4]: more stable than form B, C, D, or E
XRPD Pattern after heating ([5]; TGA to 150° C. & recovered): Form A
thermally stable up to ([5]; thermal analysis): about 200 °C
